Patent publication US9902703B2, “Somatostatin modulators and uses thereof” (Crinetics Pharmaceuticals, Inc., priority 2015, dated 2018)
pEC50: −log10 of the molar value.

Target: T1, human somatostatin receptor subtype 2 (Homo sapiens, UniProt P30874)
T1 construct: expressed in transfected cells; host or cells: CHO (Chinese hamster ovary) cells, G-418 selected
Assay: cAMP assay (functional assay for SSTR2 agonists)
Format: cell-based
Settings: CHO cells expressing human SSTR2; intracellular cAMP with forskolin, HTRF; read-out: SSTR2a EC50
Source text: Functional Assay for SSTR2 Agonists
General overview: All five SSTR subtypes are Gi coupled G-protein coupled receptors (GPCRs) that lead to decreases in intracellular cyclic AMP (cAMP) when activated by an agonist. Therefore, measurement of intracellular cAMP levels can be used to assess whether compounds of the invention are agonists of SSTR subtypes (John Kelly, Troy Stevens, W. Joseph Thompson, and Roland Seifert, Current Protocols in Pharmacology, 2005, 2.2.1-2.2). One example of an intracellular cAMP assay is described below.
One day prior to the assay, 40,000 Chinese hamster ovary (CHO) cells expressing the human somatostatin receptor subtype 2 are plated in each well of a 96-well tissue culture plate in DM-MEM growth media (Gibco) with the following additives: 10% fetal bovine serum (Gibco), 100 U/mL penicillin (Gibco), 100 ug/mL streptomycin (Gibco), 10 mM HEPES (Gibco), 1.2 mM sodium hydroxide, 0.5 mg/mL G-418 (Gibco)). The cells are cultured overnight at 37° C., 5% CO2 and 95% humidity. On the day of the assay, the media is aspirated and the cells are washed with 1× Dulbecco's phosphate buffered saline (Gibco). Next, 5 μL of assay buffer (1× Earle's Balanced Salt Solution (Gibco), 5 mM MgCl2, 10 mM HEPES, 0.1% bovine serum albumin, 0.2 mM 3-Isobutyl-1-methylxanthine (IBMX, Biomol Research Labs)) and forskolin is added. Various dilutions of the compounds of the invention are prepared in assay buffer and 5 μL of the dilutions are added to the cultured cells and incubated for 15 minutes at 37° C. […] 10 μL of lysis buffer (HRTF cAMP kit, Cisbio) containing cAMP detection and visualization antibodies are added and the assay is allowed incubate for 1-24 hours at room temperature. The intracellular cAMP concentrations are then measured using a commercially available detection kit (for example, the cAMP HTRF kit, Cisbio). The measured intracellular cAMP concentrations are plotted vs. the concentration of the compounds of the invention and the EC50 of the compounds are calculated using standard methods.

T1 sequence (P30874 whole entry): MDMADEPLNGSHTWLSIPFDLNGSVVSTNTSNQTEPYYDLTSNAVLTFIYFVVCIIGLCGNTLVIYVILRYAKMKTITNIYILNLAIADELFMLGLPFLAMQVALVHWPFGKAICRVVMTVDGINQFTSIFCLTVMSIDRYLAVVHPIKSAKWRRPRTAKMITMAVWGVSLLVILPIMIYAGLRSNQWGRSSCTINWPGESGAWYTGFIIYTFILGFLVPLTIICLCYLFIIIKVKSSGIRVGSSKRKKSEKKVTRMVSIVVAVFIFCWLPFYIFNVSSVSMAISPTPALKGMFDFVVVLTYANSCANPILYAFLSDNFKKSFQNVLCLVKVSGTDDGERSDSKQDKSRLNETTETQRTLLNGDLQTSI

Cc1cc(Cl)cc(N2C=Nc3cc(C)c(-c4cc(F)cc(C(N)=O)c4)cc3C2C(=O)N(C)C[C@@H]2CCCN2)c1 (single isomer, unassigned) [Compound 3-1] and Cc1cc(Cl)cc(N2C=Nc3cc(C)c(-c4cc(F)ccc4O)cc3C2C(=O)N(C)C[C@@H]2CCCN2)c1 (single isomer, unassigned) [Compound 3-2] cannot be ordered by pEC50: greater than 7.00 for the first, greater than 7.00 for the second.

Cc1cc(C)cc(N2C=Nc3ccc(-c4cccc(O)c4)cc3C2C(=O)N(C)C[C@H](C)N)c1 (stereo partly drawn) [Compound 1-1, N-[(2S)-2-aminopropyl]-3-(3,5-dimethylphenyl)-6-(3-hydroxyphenyl)-N-methyl-3,4-dihydroquinazoline-4-carboxamide] and Cc1cc(C)cc(N2C=Nc3ccc(-c4cccc(O)c4)cc3C2C(=O)N(C)CCN)c1 (stereo not shown) [Compound 1-2, N-(2-aminoethyl)-3-(3,5-dimethylphenyl)-6-(3-hydroxyphenyl)-N-methyl-3,4-dihydroquinazoline-4-carboxamide] fall in the same range of pEC50: 6.00 to 7.00 for the first, 6.00 to 7.00 for the second.

First: Cc1cc(C)cc(N2C=Nc3cc(Cl)c(-c4cccc(O)c4)cc3C2C(=O)NCCN)c1 (stereo not shown) [Compound 1-3, N-(2-aminoethyl)-7-chloro-3-(3,5-dimethylphenyl)-6-(3-hydroxyphenyl)-3,4-dihydroquinazoline-4-carboxamide]
Second: Cc1cc(C)cc(N2C=Nc3cc(Cl)c(-c4cccc(O)c4)cc3C2C(=O)N(C)C[C@H](C)N)c1 (stereo partly drawn) [Compound 1-4, N-[(2S)-2-aminopropyl]-7-chloro-3-(3,5-dimethylphenyl)-6-(3-hydroxyphenyl)-N-methyl-3,4-dihydroquinazoline-4-carboxamide]
The pEC50 of the first is lower: 5.00 to 6.00 for the first, greater than 7.00 for the second. The second is the more potent here.

CC[C@H](N)CN(C)C(=O)C1c2cc(-c3cccc(O)c3)c(Cl)cc2N=CN1c1cc(C)cc(C)c1 (stereo partly drawn) [Compound 1-5, N-[(2S)-2-aminobutyl]-7-chloro-3-(3,5-dimethylphenyl)-6-(3-hydroxyphenyl)-N-methyl-3,4-dihydroquinazoline-4-carboxamide] and CC[C@H](N)CN(C)C(=O)C1c2cc(-c3cccc(O)c3)c(C)cc2N=CN1c1cc(C)cc(C)c1 (stereo partly drawn) [Compound 1-9, N-[(2S)-2-aminobutyl]-3-(3,5-dimethylphenyl)-6-(3-hydroxyphenyl)-N,7-dimethyl-3,4-dihydroquinazoline-4-carboxamide] cannot be ordered by pEC50: greater than 7.00 for the first, greater than 7.00 for the second.

CC[C@H](N)CN(C)C(=O)C1c2cc(-c3cc(O)cc(F)c3)c(Cl)cc2N=CN1c1cc(C)cc(C)c1 (stereo partly drawn) [Compound 1-6, N-[(2S)-2-aminobutyl]-7-chloro-3-(3,5-dimethylphenyl)-6-(3-fluoro-5-hydroxyphenyl)-N-methyl-3,4-dihydroquinazoline-4-carboxamide] and CC[C@H](N)CN(C)C(=O)C1c2cc(-c3cc(C)cc(O)c3)c(Cl)cc2N=CN1c1cc(C)cc(C)c1 (stereo partly drawn) [Compound 1-7, N-[(2S)-2-aminobutyl]-7-chloro-3-(3,5-dimethylphenyl)-6-(3-hydroxy-5-methylphenyl)-N-methyl-3,4-dihydroquinazoline-4-carboxamide] cannot be ordered by pEC50: greater than 7.00 for the first, greater than 7.00 for the second.

CC[C@H](N)CN(C)C(=O)C1c2cc(-c3cc(O)ccc3C)c(Cl)cc2N=CN1c1cc(C)cc(C)c1 (stereo partly drawn) [Compound 1-8, N-[(2S)-2-aminobutyl]-7-chloro-3-(3,5-dimethylphenyl)-6-(5-hydroxy-2-methylphenyl)-N-methyl-3,4-dihydroquinazoline-4-carboxamide] and CC[C@H](N)CN(C)C(=O)C1c2cc(-c3cc(O)ccc3Cl)c(C)cc2N=CN1c1cc(C)cc(C)c1 (stereo partly drawn) [Compound 1-16, N-[(2S)-2-aminobutyl]-6-(2-chloro-5-hydroxyphenyl)-3-(3,5-dimethylphenyl)-N,7-dimethyl-3,4-dihydroquinazoline-4-carboxamide] cannot be ordered by pEC50: greater than 7.00 for the first, greater than 7.00 for the second.

CC[C@H](N)CN(C)C(=O)C1c2cc(-c3cc(O)ccc3F)c(C)cc2N=CN1c1cc(C)cc(C)c1 (stereo partly drawn) [Compound 1-10, N-[(2S)-2-aminobutyl]-3-(3,5-dimethylphenyl)-6-(2-fluoro-5-hydroxyphenyl)-N,7-dimethyl-3,4-dihydroquinazoline-4-carboxamide] and CC[C@H](N)CN(C)C(=O)C1c2cc(-c3cccc(O)c3F)c(C)cc2N=CN1c1cc(C)cc(C)c1 (stereo partly drawn) [Compound 1-11, N-[(2S)-2-aminobutyl]-3-(3,5-dimethylphenyl)-6-(2-fluoro-3-hydroxyphenyl)-N,7-dimethyl-3,4-dihydroquinazoline-4-carboxamide] cannot be ordered by pEC50: greater than 7.00 for the first, greater than 7.00 for the second.

Cc1cc(C)cc(N2C=Nc3cc(C)c(-c4cccc(O)c4)cc3C2C(=O)N(C)C[C@@H]2CCCN2)c1 (stereo partly drawn) [Compound 1-12, 3-(3,5-dimethylphenyl)-6-(3-hydroxyphenyl)-N,7-dimethyl-N-[(2S)-pyrrolidin-2-ylmethyl]-3,4-dihydroquinazoline-4-carboxamide] and Cc1cc(Cl)cc(N2C=Nc3cc(C)c(-c4cccc(O)c4)cc3C2C(=O)N(C)C[C@@H]2CCCN2)c1 (stereo partly drawn) [Compound 1-17, 3-(3-chloro-5-methylphenyl)-6-(3-hydroxyphenyl)-N,7-dimethyl-N-[(2S)-pyrrolidin-2-ylmethyl]-3,4-dihydroquinazoline-4-carboxamide] cannot be ordered by pEC50: greater than 7.00 for the first, greater than 7.00 for the second.

CC[C@H](N)CN(C)C(=O)C1c2cc(-c3cccc(O)c3)c(C)cc2N=CN1c1cc(C)cc(Cl)c1 (stereo partly drawn) [Compound 1-13, N-[(2S)-2-aminobutyl]-3-(3-chloro-5-methylphenyl)-6-(3-hydroxyphenyl)-N,7-dimethyl-3,4-dihydroquinazoline-4-carboxamide] and Cc1cc(Cl)cc(N2C=Nc3cc(C)c(-c4cccc(O)c4)cc3C2C(=O)N(C)C[C@H]2CCCN2)c1 (stereo partly drawn) [Compound 1-18, 3-(3-chloro-5-methylphenyl)-6-(3-hydroxyphenyl)-N,7-dimethyl-N-[(2R)-pyrrolidin-2-ylmethyl]-3,4-dihydroquinazoline-4-carboxamide] cannot be ordered by pEC50: greater than 7.00 for the first, greater than 7.00 for the second.

First: CC[C@H](N)CN(C)C(=O)C1c2cc(-c3cc(O)c(F)cc3F)c(C)cc2N=CN1c1cc(C)cc(C)c1 (stereo partly drawn) [Compound 1-14, N-[(2S)-2-aminobutyl]-6-(2,4-difluoro-5-hydroxyphenyl)-3-(3,5-dimethylphenyl)-N,7-dimethyl-3,4-dihydroquinazoline-4-carboxamide]
Second: CC[C@H](N)CN(C)C(=O)C1c2cc(-c3c(F)ccc(O)c3F)c(C)cc2N=CN1c1cc(C)cc(C)c1 (stereo partly drawn) [Compound 1-15, N-[(2S)-2-aminobutyl]-6-(2,6-difluoro-3-hydroxyphenyl)-3-(3,5-dimethylphenyl)-N,7-dimethyl-3,4-dihydroquinazoline-4-carboxamide]
The pEC50 of the first is lower: 6.00 to 7.00 for the first, greater than 7.00 for the second.

Cc1cc(Cl)cc(N2C=Nc3cc(C)c(-c4cc(O)ccc4F)cc3C2C(=O)N(C)C[C@@H]2CCCN2)c1 (stereo partly drawn) [Compound 1-19, 3-(3-chloro-5-methylphenyl)-6-(2-fluoro-5-hydroxyphenyl)-N,7-dimethyl-N-[(2S)-pyrrolidin-2-ylmethyl]-3,4-dihydroquinazoline-4-carboxamide] and Cc1cc(Cl)cc(N2C=Nc3cc(C)c(-c4cc(O)ccc4Cl)cc3C2C(=O)N(C)C[C@@H]2CCCN2)c1 (stereo partly drawn) [Compound 1-20, 6-(2-chloro-5-hydroxyphenyl)-3-(3-chloro-5-methylphenyl)-N,7-dimethyl-N-[(2S)-pyrrolidin-2-ylmethyl]-3,4-dihydroquinazoline-4-carboxamide] cannot be ordered by pEC50: greater than 7.00 for the first, greater than 7.00 for the second.
